Measurements taken from patent US20260306640A1, “TECHNOLOGIES TARGETING CELL STATES” (Auron Therapeutics, Inc., priority 2023, published 2026).

How the values were obtained:
KAT2A = KAT2A (Homo sapiens, UniProt Q92830); experiment: KAT2A degradation, Western Blot (Jess), NCI-H1048 cells; format: cell-based; design: degrader, Western blot (Jess); conditions: NCI-H1048 cells, KAT2A, 24 h, Western Blot, vs DMSO; read-out: KAT2A NCI-H1048 DC50
Description: (§1) MOLM-13 cells or NCI-H1048 cells were used for Western Blot analysis of KAT2A degradation. KAT2B degradation can be measured in a similar manner with NCI-H1048 cells.
(§2) H1048 cells were maintained at 37° C. in 5% CO2 and 90% humidity in HITES medium with 5% fetal bovine serum (FBS). HITES medium was […] with the following additions: 0.005 mg/ml Insulin, 0.01 mg/ml Transferrin, 30 nM Sodium selenite, 10 nM Hydrocortisone, 10 nM beta-estradiol, and extra 2 mM L-glutamine (for final concentration of 4.5 mM). Cells were plated in full media at 1 million cells/2 mL in a 6-well tissue culture treated plate with or without compounds for 24 h at 37° C. in 5% CO2.
(§3) MOLM-13 cells or NCI-H1048 cells were washed with PBS, then lysed with RIPA buffer containing 1×protease and phosphatase inhibitors (SantaCruz Biotechnologies Cat #sc-24948A). Protein was isolated by centrifugation at 12,000×g for 10 minutes at 4° C. and supernatant was collected. Protein was quantified via Bradford assay. Samples were diluted to 4 μg lysate in 16 μL RIPA buffer and then 4 μL of Jess Sample Buffer. Samples were heated at 95° C. for 5 minutes. Samples were loaded onto 12-230 kDa Jess™ Separation Module, 8×25 capillary cartridges (SM-W004, Biotechne). Antibodies loaded were: Primary antibody for KAT2A (GCN5L2 (C26A10) Rabbit mAb (3305, CST)) and for KAT2B (PCAF (C14G9)) Rabbit mAb (3378, CST) at 1:1000 and Anti-Rabbit Detection Module for Jess™ (Cat No #DM-001, Biotechne). Signal was detected by chemiluminescence.
(§4) DC50 values were determined from percent reduction of protein as compared to the DMSO control.

KAT2B = KAT2B (Homo sapiens, UniProt Q92831); experiment: KAT2B degradation, Western Blot (Jess), NCI-H1048 cells; format: cell-based; design: degrader, Western blot (Jess); conditions: NCI-H1048 cells, KAT2B, 24 h, Western Blot, vs DMSO; read-out: KAT2B NCI-H1048 DC50
Description: as §1, §2, §3, §4

Sequence of KAT2B (Q92831 whole entry): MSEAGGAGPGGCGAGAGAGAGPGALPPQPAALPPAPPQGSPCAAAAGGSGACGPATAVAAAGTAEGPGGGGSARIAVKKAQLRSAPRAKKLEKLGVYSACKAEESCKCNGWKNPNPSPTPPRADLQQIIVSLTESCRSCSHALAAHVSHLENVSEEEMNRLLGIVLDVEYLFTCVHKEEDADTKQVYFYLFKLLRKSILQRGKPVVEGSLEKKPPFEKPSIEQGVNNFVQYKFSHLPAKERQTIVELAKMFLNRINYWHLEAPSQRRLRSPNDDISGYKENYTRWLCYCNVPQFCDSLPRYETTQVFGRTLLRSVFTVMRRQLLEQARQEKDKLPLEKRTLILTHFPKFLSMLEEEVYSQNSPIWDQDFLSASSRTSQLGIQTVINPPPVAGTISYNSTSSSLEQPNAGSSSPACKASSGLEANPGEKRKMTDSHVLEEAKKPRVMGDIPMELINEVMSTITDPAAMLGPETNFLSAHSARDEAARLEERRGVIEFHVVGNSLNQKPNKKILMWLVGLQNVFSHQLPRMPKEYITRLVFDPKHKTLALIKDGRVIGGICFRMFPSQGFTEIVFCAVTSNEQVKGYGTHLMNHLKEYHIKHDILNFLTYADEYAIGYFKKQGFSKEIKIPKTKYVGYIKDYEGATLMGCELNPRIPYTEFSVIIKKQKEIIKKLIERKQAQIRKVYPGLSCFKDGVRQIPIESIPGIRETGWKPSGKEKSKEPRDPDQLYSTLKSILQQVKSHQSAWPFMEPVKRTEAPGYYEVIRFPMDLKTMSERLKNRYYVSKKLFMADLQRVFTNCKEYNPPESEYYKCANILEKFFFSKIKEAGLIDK
Sequence of KAT2A (Q92830 whole entry): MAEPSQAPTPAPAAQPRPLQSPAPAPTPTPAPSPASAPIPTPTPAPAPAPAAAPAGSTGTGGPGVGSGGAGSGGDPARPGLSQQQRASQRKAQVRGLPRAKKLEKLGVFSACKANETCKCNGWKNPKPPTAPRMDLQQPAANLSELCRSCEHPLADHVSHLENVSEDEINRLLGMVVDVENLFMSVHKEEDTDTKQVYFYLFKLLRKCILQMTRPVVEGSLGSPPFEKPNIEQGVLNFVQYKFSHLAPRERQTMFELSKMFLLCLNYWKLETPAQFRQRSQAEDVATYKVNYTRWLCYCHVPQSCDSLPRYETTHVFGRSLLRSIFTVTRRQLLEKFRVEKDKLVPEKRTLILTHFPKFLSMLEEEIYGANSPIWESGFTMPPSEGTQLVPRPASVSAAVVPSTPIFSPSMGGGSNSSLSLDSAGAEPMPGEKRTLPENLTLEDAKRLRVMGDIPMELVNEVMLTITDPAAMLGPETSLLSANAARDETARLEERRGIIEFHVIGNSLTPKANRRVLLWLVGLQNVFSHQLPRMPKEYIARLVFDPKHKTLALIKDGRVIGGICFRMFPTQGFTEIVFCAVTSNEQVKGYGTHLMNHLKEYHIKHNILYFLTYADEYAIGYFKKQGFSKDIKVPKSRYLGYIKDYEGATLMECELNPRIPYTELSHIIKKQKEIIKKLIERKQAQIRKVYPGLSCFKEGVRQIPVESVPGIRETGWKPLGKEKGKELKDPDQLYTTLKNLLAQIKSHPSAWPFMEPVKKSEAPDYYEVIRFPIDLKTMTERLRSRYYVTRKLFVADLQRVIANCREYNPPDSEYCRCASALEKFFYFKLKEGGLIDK

DC50 (KAT2A) [nM] | DC50 (KAT2B) [nM] | SMILES
< 1 | < 1 | CN1C[C@H](Nc2cnn(C)c(=O)c2Br)C[C@H](c2ccc(C(=O)N3CCC4(CC3)CCN(c3ccc(C5CCC(=O)NC5=O)cc3)CC4)cc2)C1 (single isomer, unassigned) [Compound 239]
< 1 | < 1 | Cc1cc(N2CCC3(CCN(C(=O)c4ccc([C@H]5C[C@@H](Nc6cnn(C)c(=O)c6Br)CN(C)C5)cc4)CC3)CC2)cc(F)c1C1CCC(=O)NC1=O (some centres unmarked) [Compound 2-69]
1 to 30 | 1 to 30 | CN1C[C@H](Nc2cnn(C)c(=O)c2Br)C[C@H](c2ccc(C(=O)N3CCC4(CC3)CCN(c3cccc5c3C(=O)N(C3CCC(=O)NC3=O)C5=O)CC4)cc2)C1 (some centres unmarked) [Compound 17]
1 to 30 | > 30 | CN1C[C@H](Nc2cnn(C)c(=O)c2Br)C[C@H](c2ccc(C(=O)N3CC(c4ccc(C5CCC(=O)NC5=O)cc4)C3)cc2)C1 (some centres unmarked) [Compound 189]
1 to 30 | > 30 | CN1C[C@H](Nc2cnn(C)c(=O)c2Br)C[C@H](c2ccc(CN3CC(c4cccc(C5CCC(=O)NC5=O)c4)C3)cc2)C1 (some centres unmarked) [Compound 190]
1 to 30 | > 30 | CN1C[C@H](Nc2cnn(C)c(=O)c2Br)C[C@H](c2ccc(C(=O)N3CC(c4cccc(C5CCC(=O)NC5=O)c4)C3)cc2)C1 (some centres unmarked) [Compound 191]
< 1 | > 30 | Cc1c(N[C@@H]2C[C@H](c3ccc(COc4ccc5c(c4)C(=O)N(C4CCC(=O)NC4=O)C5=O)cc3)CN(C)C2)cnn(C)c1=O (some centres unmarked) [Compound 192]
1 to 30 | > 30 | CN1C[C@H](Nc2cnn(C)c(=O)c2Cl)C[C@H](c2ccc(C(=O)N3CC(c4cccc(C5CCC(=O)NC5=O)c4)C3)cc2)C1 (some centres unmarked) [Compound 193]
1 to 30 | > 30 | CN1C[C@H](Nc2cnn(C)c(=O)c2Cl)C[C@H](c2ccc(CN3CC(c4cccc(C5CCC(=O)NC5=O)c4)C3)cc2)C1 (some centres unmarked) [Compound 194]
1 to 30 | > 30 | CN1C[C@H](Nc2cnn(C)c(=O)c2Br)C[C@H](c2ccc(CN3CC(c4ccc(C5CCC(=O)NC5=O)cc4)C3)cc2)C1 (some centres unmarked) [Compound 195]
< 1 | < 1 | CN1C[C@H](Nc2cnn(C)c(=O)c2Br)C[C@H](c2ccc(CN3CCN(c4cccc5c4oc(=O)n5C4CCC(=O)NC4=O)CC3)cc2)C1 (some centres unmarked) [Compound 196]
1 to 30 | > 30 | CN1C[C@H](Nc2cnn(C)c(=O)c2Br)C[C@H](c2ccc(C(=O)N3CC(c4ccc5c(c4)C(=O)N(C4CCC(=O)NC4=O)C5=O)C3)cc2)C1 (some centres unmarked) [Compound 197]
1 to 30 | > 30 | CN1C[C@H](Nc2cnn(C)c(=O)c2Cl)C[C@H](c2ccc(C(=O)N3CC(c4ccc5c(c4)C(=O)N(C4CCC(=O)NC4=O)C5=O)C3)cc2)C1 (some centres unmarked) [Compound 198]
> 30 | > 30 | CN1C[C@H](Nc2cnn(C)c(=O)c2Cl)C[C@H](c2ccc(CN3CC(c4ccc5c(c4)C(=O)N(C4CCC(=O)NC4=O)C5=O)C3)cc2)C1 (some centres unmarked) [Compound 199]
1 to 30 | > 30 | CN1C[C@H](Nc2cnn(C)c(=O)c2Br)C[C@H](c2ccc(CN3Cc4cc5c(cc4C3)C(=O)N(C3CCC(=O)NC3=O)C5=O)cc2)C1 (some centres unmarked) [Compound 200]
< 1 | 1 to 30 | CN1C[C@H](Nc2cnn(C)c(=O)c2Br)C[C@H](c2ccc(C(=O)N3CCN(c4cccc5c4oc(=O)n5C4CCC(=O)NC4=O)CC3)cc2)C1 (some centres unmarked) [Compound 201]
1 to 30 | > 30 | CN1C[C@H](Nc2cnn(C)c(=O)c2Br)C[C@H](c2ccc(CN3CC(c4ccc5c(c4)C(=O)N(C4CCC(=O)NC4=O)C5=O)C3)cc2)C1 (some centres unmarked) [Compound 202]
< 1 | 1 to 30 | CN1C[C@H](Nc2cnn(C)c(=O)c2Cl)C[C@H](c2ccc(C(=O)N3CCC(Oc4ccc(C5CCC(=O)NC5=O)c(F)c4)CC3)cc2)C1 (some centres unmarked) [Compound 203]

DC50 (KAT2A) [nM] | DC50 (KAT2B) [nM] | SMILES
> 30 | > 30 | CN1C[C@H](Nc2cnn(C)c(=O)c2Br)C[C@H](c2ccc(C(=O)N3CCN(C4CCC(N5CCC(=O)NC5=O)CC4)CC3)cc2)C1 (some centres unmarked) [Compound 204]
> 30 | > 30 | CN1C[C@H](Nc2cnn(C)c(=O)c2Br)C[C@H](c2ccc(C(=O)N3CCN(Cc4cnn(C5CCC(=O)NC5=O)c4)CC3)cc2)C1 (some centres unmarked) [Compound 205]
< 1 | – | Cc1c(C2CCC(=O)NC2=O)ccc(N2CCC3(CCN(C(=O)c4ccc([C@H]5C[C@@H](Nc6cnn(C)c(=O)c6Cl)CN(C)C5)cc4)CC3)CC2)c1F (some centres unmarked) [Compound 253]
1 to 30 | – | COc1cc(N2CCC3(CCN(C(=O)c4ccc([C@H]5C[C@@H](Nc6cnn(C)c(=O)c6Br)CN(C)C5)cc4)CC3)CC2)cc(F)c1C1CCC(=O)NC1=O (some centres unmarked) [Compound 280]
1 to 30 | – | COc1cc(N2CCC3(CCN(C(=O)c4ccc([C@H]5C[C@@H](Nc6cnn(C)c(=O)c6Cl)CN(C)C5)cc4)CC3)CC2)cc(F)c1C1CCC(=O)NC1=O (some centres unmarked) [Compound 281]
< 1 | – | Cc1cc(N2CCC3(CCN(C(=O)c4ccc([C@H]5C[C@@H](Nc6cnn(C)c(=O)c6Br)CN(C)C5)cc4)CC3)CC2)cc(C)c1C1CCC(=O)NC1=O (some centres unmarked) [Compound 282]
> 30 | – | CN1C[C@H](Nc2cnn(C)c(=O)c2Br)C[C@H](c2ccc(CN3CCN(c4cncc(C5CCC(=O)NC5=O)c4)CC3)cc2)C1 (some centres unmarked) [Compound 345]
1 to 30 | – | C[C@@H]1CN(c2cccc(C3CCC(=O)NC3=O)c2)C[C@H](C)N1Cc1ccc([C@H]2C[C@@H](Nc3cnn(C)c(=O)c3Br)CN(C)C2)cc1 (some centres unmarked) [Compound 370]
1 to 30 | – | C[C@@H]1CN(c2cccc(C3CCC(=O)NC3=O)c2)C[C@H](C)N1Cc1ccc([C@H]2C[C@@H](Nc3cnn(C)c(=O)c3Cl)CN(C)C2)cc1 (some centres unmarked) [Compound 371]
1 to 30 | – | CN1C[C@H](Nc2cnn(C)c(=O)c2Br)C[C@H](c2ccc(C(=O)N3CCC4(CC3)CCN(c3ccc5c(N6CCC(=O)NC6=O)cncc5c3)CC4)cc2)C1 [Compound 375]
1 to 30 | – | CN1C[C@H](Nc2cnn(C)c(=O)c2Cl)C[C@H](c2ccc(CN3CCC(c4ccc5c(c4)C(=O)N(C4CCC(=O)NC4=O)C5=O)C(F)(F)C3)cc2)C1 (some centres unmarked) [Compound 392]
> 30 | – | CN1C[C@H](Nc2cnn(C)c(=O)c2Cl)C[C@H](c2ccc(CN3CCN(c4cccc(CN5CCC(=O)NC5=O)c4)CC3)cc2)C1 [Compound 393]
1 to 30 | – | CN1C[C@H](Nc2cnn(C)c(=O)c2Br)C[C@H](c2ccc(N3CCC4(CC3)CCN(c3cccc(CN5CCC(=O)NC5=O)c3)CC4)cc2)C1 [Compound 400]
– | > 30 | Cc1ncsc1-c1ccc(CNC(=O)[C@@H]2C[C@@H](O)CN2C(=O)[C@@H](NC(=O)C2CCN(C3CCN(C(=O)c4ccc([C@H]5C[C@@H](Nc6cnn(C)c(=O)c6Br)CN(C)C5)cc4)CC3)CC2)C(C)(C)C)cc1 [Compound 410]
1 to 30 | – | Cc1nnc2c3ccccc3c(N[C@@H](C)[C@H](c3ccc(C(=O)N4CCC5(CC4)CCN(c4ccc(C6CCC(=O)NC6=O)cc4)CC5)cc3)N(C)C)nn12 (stereo partly drawn) [Compound 426, 3-(4-(9-(4-((1S,2S)-1-(dimethylamino)-2-((3-methyl-[1,2,4]triazolo[3,4-a]phthalazin-6-yl)amino)propyl)benzoyl)-3,9-diazaspiro[5.5]undecan-3-yl)phenyl)piperidine-2,6-dione]
> 30 | – | Cc1nnc2c3ccccc3c(N[C@@H](C)[C@H](c3ccc(CN4CCN(c5cccc(C6CCC(=O)NC6=O)c5)CC4)cc3)N(C)C)nn12 (stereo partly drawn) [Compound 428, 3-(3-(4-(4-((1S,2S)-1-(dimethylamino)-2-((3-methyl-[1,2,4]triazolo[3,4-a]phthalazin-6-yl)amino)propyl)benzyl)piperazin-1-yl)phenyl)piperidine-2,6-dione]
1 to 30 | – | C[C@H](Nc1nn(C)c(=O)n(C)c1=O)[C@H](c1ccc(C(=O)N2CCC3(CC2)CCN(c2ccc(C4CCC(=O)NC4=O)cc2)CC3)cc1)N(C)C (stereo partly drawn) [Compound 431, 6-(((1S,2S)-1-(dimethylamino)-1-(4-(9-(4-(2,6-dioxopiperidin-3-yl)phenyl)-3,9-diazaspiro[5.5]undecane-3-carbonyl)phenyl)propan-2-yl)amino)-2,4-dimethyl-1,2,4-triazine-3,5(2H,4H)-dione]

SMILES | DC50 (KAT2A) [nM] | DC50 (KAT2B) [nM]
CC(=O)N[C@H](C(=O)N1C[C@H](O)C[C@H]1C(=O)NCc1ccc(-c2scnc2C)cc1OCCCCNC(=O)c1ccc([C@H]2C[C@@H](Nc3cnn(C)c(=O)c3Br)CN(C)C2)cc1)C(C)(C)C [Compound 406, (2S,4R)-1-((S)-2-acetamido-3,3-dimethylbutanoyl)-N-(2-(4-(4-((3R,5R)-5-((5-bromo-1-methyl-6-oxo-1,6-dihydropyridazin-4-yl)amino)-1-methylpiperidin-3-yl)benzamido)-butoxy)-4-(4-methylthiazol-5-yl)benzyl)-4-hydroxypyrrolidine-2-carboxamide] | > 30 | –
